Results as given in BindingDB's records for doi:10.1124/jpet.104.077339 (Section of Pharmacology, 2005).
“And” between values parts separate entries of the source, which are not always exact repeats. Equal entries are not always repeated.

Columns and labels:
Nociceptin receptor [1] = molecular target: Nociceptin receptor (Mus musculus, UniProt P35377)
[2] = molecular target: Delta-type opioid receptor (Homo sapiens, UniProt P41143)
Nociceptin receptor [3] = molecular target: Nociceptin receptor (Rattus norvegicus, UniProt P35370)
Chain of Nociceptin receptor (Rattus norvegicus, UniProt P35370) (P35370 whole entry): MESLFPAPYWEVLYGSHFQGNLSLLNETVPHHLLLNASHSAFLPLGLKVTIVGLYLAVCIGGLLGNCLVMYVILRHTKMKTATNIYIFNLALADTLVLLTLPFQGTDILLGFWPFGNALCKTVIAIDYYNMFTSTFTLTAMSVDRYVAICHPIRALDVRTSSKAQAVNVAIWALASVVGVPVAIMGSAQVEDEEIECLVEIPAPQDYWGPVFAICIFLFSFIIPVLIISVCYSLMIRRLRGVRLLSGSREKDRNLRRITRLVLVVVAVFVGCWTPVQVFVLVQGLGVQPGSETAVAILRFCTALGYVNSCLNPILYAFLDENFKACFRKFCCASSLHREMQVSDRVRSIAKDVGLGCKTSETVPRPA

[4] = molecular target: Kappa-type opioid receptor (Homo sapiens, UniProt P41145)
Chain of Kappa-type opioid receptor (P41145 whole entry): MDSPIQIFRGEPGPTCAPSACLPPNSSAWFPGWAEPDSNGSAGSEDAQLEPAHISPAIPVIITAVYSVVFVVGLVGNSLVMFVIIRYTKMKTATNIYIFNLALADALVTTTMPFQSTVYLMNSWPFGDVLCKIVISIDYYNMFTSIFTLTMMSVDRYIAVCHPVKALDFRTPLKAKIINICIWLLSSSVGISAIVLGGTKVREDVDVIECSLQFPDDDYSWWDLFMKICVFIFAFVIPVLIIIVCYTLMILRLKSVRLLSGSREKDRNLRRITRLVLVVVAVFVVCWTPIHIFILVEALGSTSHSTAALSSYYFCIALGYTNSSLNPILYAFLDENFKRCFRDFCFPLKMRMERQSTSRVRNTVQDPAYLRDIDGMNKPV

[5] = molecular target: Nociceptin receptor (Cavia porcellus)
Mu-type opioid receptor = Mu-type opioid receptor (Homo sapiens, UniProt P35372)
Chain of Mu-type opioid receptor (P35372 whole entry): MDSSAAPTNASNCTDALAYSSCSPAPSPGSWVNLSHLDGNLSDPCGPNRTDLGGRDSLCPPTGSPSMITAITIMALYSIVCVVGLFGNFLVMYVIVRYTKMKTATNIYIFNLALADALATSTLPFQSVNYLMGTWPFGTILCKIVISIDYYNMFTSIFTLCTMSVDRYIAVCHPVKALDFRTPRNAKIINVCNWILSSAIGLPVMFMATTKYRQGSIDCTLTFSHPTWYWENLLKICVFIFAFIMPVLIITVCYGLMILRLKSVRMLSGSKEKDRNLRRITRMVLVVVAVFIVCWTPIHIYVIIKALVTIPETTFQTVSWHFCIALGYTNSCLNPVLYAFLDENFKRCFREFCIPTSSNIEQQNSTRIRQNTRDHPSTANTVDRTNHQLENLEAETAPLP

Nociceptin receptor [6] = molecular target: Nociceptin receptor (Homo sapiens, UniProt P41146)
Chain of Nociceptin receptor (Homo sapiens, UniProt P41146) (P41146 whole entry): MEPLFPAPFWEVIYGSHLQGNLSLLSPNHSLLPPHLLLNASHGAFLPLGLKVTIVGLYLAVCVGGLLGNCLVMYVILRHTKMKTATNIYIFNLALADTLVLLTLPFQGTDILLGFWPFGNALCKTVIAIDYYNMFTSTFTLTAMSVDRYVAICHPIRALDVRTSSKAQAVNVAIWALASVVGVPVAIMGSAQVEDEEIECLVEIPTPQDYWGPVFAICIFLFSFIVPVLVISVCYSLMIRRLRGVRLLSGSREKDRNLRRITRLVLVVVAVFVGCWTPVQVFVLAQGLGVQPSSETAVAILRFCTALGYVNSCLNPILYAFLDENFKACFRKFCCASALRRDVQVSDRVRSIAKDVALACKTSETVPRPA

Chain of Nociceptin receptor (Mus musculus, UniProt P35377) (P35377 whole entry): as the sequence (P35370 whole entry) above, with Y9F, S335A counted along it
Chain of Delta-type opioid receptor (P41143 whole entry): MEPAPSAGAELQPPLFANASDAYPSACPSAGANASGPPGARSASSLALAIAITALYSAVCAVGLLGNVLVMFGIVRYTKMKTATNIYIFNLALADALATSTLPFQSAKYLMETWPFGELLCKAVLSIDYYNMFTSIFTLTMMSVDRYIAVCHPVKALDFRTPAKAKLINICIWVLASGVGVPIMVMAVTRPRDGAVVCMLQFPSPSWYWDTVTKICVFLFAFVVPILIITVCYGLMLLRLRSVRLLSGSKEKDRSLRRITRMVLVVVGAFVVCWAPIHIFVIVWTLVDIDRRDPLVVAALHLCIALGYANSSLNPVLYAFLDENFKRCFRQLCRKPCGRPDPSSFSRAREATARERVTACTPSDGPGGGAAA

## C[C@H](NC(=O)CNC(=O)[C@@H](NC(=O)[C@H](Cc1ccc(F)cc1)NC(=O)CNC(=O)CNC(=O)[C@@H](N)Cc1ccccc1)[C@@H](C)O)C(=O)N[C@@H](CCCNC(=N)N)C(=O)N[C@@H](CCCCN)C(=O)N[C@@H](CO)C(=O)N[C@@H](C)C(=O)N[C@@H](CCCNC(=N)N)C(=O)N[C@@H](CCCCN)C(=O)N[C@@H](CCCNC(=N)N)C(=O)N[C@@H](CCCCN)C(=O)N[C@@H](CC(N)=O)C(=O)N[C@@H](CCC(N)=O)C(N)=O [OFQ/N UFP-102]
Nociceptin receptor [1]
  Ki: 0.38 nM and 0.65 nM and 0.36 nM
[2]
  Ki: 380 nM
Nociceptin receptor [3]
  Ki: 2.69 nM
[4]
  Ki: 4.79 nM
[5]
  EC50: 0.58 nM
Mu-type opioid receptor
  Ki: 70.8 nM
Nociceptin receptor [6]
  Ki: 0.076 nM and 0.068 nM and 0.021 nM
